From US20250017889A1, “INHIBITORS OF P1B-TYPE ATPASES” (THE CURATORS OF THE UNIVERSITY OF MISSOURI, priority 2021, published 2025)

Tests used:
[1] = test system: tyrosinase activity in B16 melanoma cells; assay: Tyrosinase activity in wild type B16 melanoma cells (L-DOPA to DOPAchrome), proxy for ATP7A inhibition; format: cell-based
Description: Tyrosinase is a cuproenzyme involved in melanogenesis that receives copper via ATP7A in the secretory pathway. […] Thus, reductions in tyrosinase activity in wild type B16 cells can be used as a proxy for inhibition of ATP7A. […]

GFP alone = assay: Microscale thermophoresis (MST), GFP alone as negative control; format: binding
Description: Coordinating residues D935 and E798 are predicted to bind copper during transport.

4T1, B16 and LLC cells = assay: Sensitivity of cells to elevated copper concentrations; format: cell-based; conditions: 10 μM, 48 h
Description: It is well-known that copper export via ATP7A is the major mechanism by which cells are protected against rising copper levels, which is facilitated by Cu-stimulated trafficking of ATP7A from the trans-Golgi to the plasma membrane. Therefore, a predicted consequence of an ATP7A inhibitor would be an increase of the sensitivity of cells to high copper concentrations.

B16 melanoma lung tumors = assay: Melanin production in B16 melanoma tumors on the lungs of mice; format: in vivo, C57BL/6 mice; conditions: 50 mg/kg subcutaneously every other day for 7 days
Description: Previous studies have shown that ATP7A is essential for copper delivery into the secretory pathway to tyrosinase, a copper-dependent enzyme required for melanogenesis. […] To confirm that ATP7A is required for tyrosinase activity, B16 melanoma cells were generated in which the ATP7A gene was deleted by CRISPR-CAS9 to generate ATP7A^KO cells. As expected, tyrosinase activity was absent in the B16 ATP7A^KO cells. […] Wild type B16 melanoma cells were injected by tail vein into C57BL/6 mice to establish metastatic tumors on the lungs. […] Left panel images show the lungs of three different mice immediately after dissection. In control mice, darkly pigmented melanoma nodules were readily apparent on the lungs (white arrows).

[2] = test system: Cu^S cells complemented with ATP7A; assay: Copper toxicity in Cu^S cells complemented with ATP7A; format: cell-based; conditions: 10 μM, 50% cytotoxic copper concentration
Description: 8A illustrates a copper sensitive fibroblast cell line (Cu^S) generated by deleting genes encoding ATP7A, metallothionein-I (MT-I) and metallothionein-II (MT-II). Cu^S cells cannot be propagated in regular medium (DMEM) unless a copper chelator (BCS) is supplied to the medium.
Cu^S cell lines were derived that were complemented by either ATP7A, ATP7B or MT-II.

[3] = test system: ATP7A trafficking in 4T1 breast cancer cells; assay: Copper-stimulated trafficking of ATP7A by immunofluorescence microscopy; format: cell-based; conditions: 10 μM, 4 h, 4T1 cells
Description: Since the copper-stimulated trafficking of ATP7A is dependent on its transport activity, an inhibitor of ATP7A would be expected to block copper-stimulated trafficking of ATP7A. 4T1 breast cancer cells were pre-grown on glass coverslips for 16 hours in media containing 10 μM of the copper chelator bathocuproine disulfonate to create a baseline of low copper levels. […] After 4 h, the cells were fixed, permeabilized and stained with anti-ATP7A antibodies (green). Nuclei were labeled with DAPI stain. In vehicle treated control cells, the ATP7A protein was strongly detected in the perinuclear region (13A), which is consistent with its known location in the trans-Golgi compartment. As expected, the copper treatment stimulated ATP7A trafficking from the perinuclear region into cytoplasmic vesicles (13B).

[4] = test system: 4T1, B16 and HEK293 cell lines; assay: Cellular copper concentrations by ICP-MS; format: cell-based; conditions: 10 μM, 24 hours
Description: Since ATP7A functions in copper export from cells, an inhibitor of ATP7A activity would be expected to increase cellular copper concentrations. […] After 24 hours, cellular copper concentrations were measured using inductively coupled plasma mass spectroscopy (ICP-MS).

What does the source list for `N#CC(C(=O)Nc1cccc(C(F)(F)F)c1)C(=S)Nc1ccccc1Cl` (centres unmarked) [MKV3]?
in situ tyrosinase activity ([1]; 5 μM, 24 h, wild type B16 melanoma cells): loss of tyrosinase activity; IC50 ([1]; Mus musculus, B16 cells): 2.96 ± 0.007 µM; binding to GFP alone (GFP alone): not to GFP alone; copper toxicity (4T1, B16 and LLC cells): strongly augmented copper toxicity; pigment of melanoma nodules on the lungs (B16 melanoma lung tumors): very little pigment; copper toxicity [2]: enhanced copper toxicity; copper-stimulated trafficking of ATP7A [3]: blocked; cellular copper concentrations [4]: significantly increased
